Laboratory results as given in patent publication US20140041062A1, “GENETICALLY ENGINEERED MOUSE MODEL FOR AUTISM SPECTRUM DISORDER HAVING DELETION OF SHANK2 GENE AND USE THEREOF” (Industry-Academic Cooperation Foundation, Yonsei University, priority 2012, published 2014).
Entries after “also recorded” stand apart in the source; their conditions may differ.

Key:
NMDAR = experiment: NMDA/AMPA ratio at hippocampal SC-CA1 synapses of Shank2−/− slices; assay type: cell-based, mouse; details: for NMDA/AMPA ratio: Shank2−/− SC-CA1 synapses / slices; for NMDAR function: Shank2−/− mice, figure legend
From the text: Thus, the present inventors measured the NMDA/AMPA ratio at Shank2^−/− SC-CA1 synapses. Indeed, the NMDA/AMPA ratio was reduced relative to wild-type synapses (FIG. 2e).
Reduced NMDAR function and associated signaling may contribute to autism spectrum disorder (ASD)-like behaviors in Shank2^−/− mice.
(§1) Consistent with previous findings, CDPPB also normalized the NMDA/AMPA ratio in Shank2^−/− slices (FIG. 4a). […] The smaller extents of signaling deficits in older mice (8 weeks) relative to younger mice (3-4 weeks) may reflect age-dependent reductions in NMDAR-mediated currents, and/or compensatory changes in NMDAR signaling.

SC-CA1 synapses = experiment: Synaptic plasticity (LTP, LTD) and basal transmission at SC-CA1 synapses of Shank2−/− mice; assay type: cell-based, mouse
Protocol: Next, the present inventors measured synaptic transmission at hippocampal Schaffer collaterals-CA1 pyramidal (SC-CA1) synapses. Basal excitatory transmission such as input-output and paired-pulse ratio was unchanged in Shank2^−/− mice (FIGS. 2a and 2b). In addition, spontaneous transmission and membrane excitability were normal in mutant animals. When synaptic plasticity was tested, long-term potentiation (LTP) induced by high frequency stimulation or theta-burst stimulation were severely impaired in Shank2^−/− mice (FIG. 2c). Long-term depression (LTD) induced by low-frequency stimulation was completely abolished also in Shank2^−/− mice (FIG. 2d). Because LTD induced by low-frequency stimulation activates both NMDA and metabotropic glutamate receptors (NMDARs and mGluRs), the present inventors isolated mGluR-LTD by bath-applying DHPG, an agonist of mGluR5, but found no difference between genotypes.
as §1

NMDAR signaling = experiment: Immunoblot analysis of NMDAR signaling in Shank2−/− whole brains and synaptosomes after CDPPB treatment; assay type: in vivo, mouse; details: CDPPB i.p. 40 min before brain sample preparation
Protocol: For whole brain homogenates, mouse brains (3-4 wks) were briefly homogenized in 3 volumes of ice-cold homogenization buffer (0.32 M sucrose, 10 mM HEPES pH7.4, 2 mM EDTA, protease inhibitors, phosphatase inhibitors). Protein concentrations were measured by the Bradford assay. The relative amount of […]α-tubulin was used as a loading control. Synaptosomal fractions were prepared (Blackstone, C. D. et al., J Neurochem 58, 1118-26 (1992)).
(§2) CDPPB (Ascent scientific) was dissolved in DMSO and polyethylene glycol 400 (DMSO:PEG 400=1:9) to a final concentration of 6 g/l. Wild-type and Shank2^−/− mice received intraperitoneal injection of CDPPB (10 or 3 mg/kg), or the same volume of DSMO-PEG400 mixture, 30 min before three-chamber or other behavioral assays and 40 min before brain sample preparation for immunoblot analyses. D-cycloserine (Ascent Scientific) was dissolved in saline to final concentration of 12 g/l. Wild-type and Shank2^−/− mice received intraperitoneal injection of D-cycloserine (20 mg/kg), or the same volume of saline, 30 min before three-chamber assays.
Shank2 deletion may also affect NMDAR-associated signaling that it critically regulates various synaptic events including LTP and LTD (Zhu, J. J. et al. Cell 110, 443-55 (2002); Shepherd, J. D. & Huganir, R. L. Annu Rev Cell Dev Biol 23, 613-43 (2007)). […]

Shank2−/− mice [1] = experiment: Three-chamber social interaction assay; assay type: in vivo, mouse
Protocol: The three-chamber social interaction assay consisted of three phases. In the first phase, a wild-type or Shank2^−/− mouse was placed in the three-chambered apparatus with two small containers in the left or right (not center) chamber, and was allowed to explore the environment freely for 10 min for habituation. After 10 min, the wild-type or Shank2^−/− mouse was gently guided to the center chamber, and the two entrances to the center chamber were blocked while an inaminate object (Object) and a stranger mouse (Stranger 1) were placed in the two containers. Then, the two entrances were opened to allow the mouse in the center to explore the new environment freely for 10 min. In the third phase, the test mouse was gently guided to the center chamber again, with the blockade of the entrances. The Object was replaced with Stranger 2, followed by exploration of the Stranger 1 or 2 by the test mouse for 10 min. Exploration was defined as each instance in which wild-type or Shank2^−/− mouse tries to sniff Object/Stranger, or orients its nose towards and come close to Object/Stranger. Time spent in each chamber was measured by Ethovision 3.1 program (Noldus). Individual movement tracks were analyzed by Ethovision and modified by ImageJ to generate heat maps. In addition to time spent in chamber or in exploration, the present inventors used the preference index, which represents a difference in percent exploration time over the targets (Wang, X. et al. Hum Mol Genet 20, 3093-108 (2011)).
as §2

Shank2−/− mice [2] = experiment: Pup retrieval assay; assay type: in vivo, mouse; details: CDPPB i.p.
Protocol: Virgin female mice were isolated for four days before pup retrieval assays. Three normal pups (1-d old; C57BL/6N) were placed at three different corners of a home cage of a test female mouse (wild-type or Shank2^−/−), and the female mouse was allowed to retrieve the pups for 10 min. Efficiency of pup retrieval was measured by the time taken to retrieve the first, second, and third pups.
as §2

Shank2−/− mice [3] = experiment: Repetitive behaviors (jumping) in home cage; assay type: in vivo, mouse; details: CDPPB i.p.
Protocol: Mice in their home cages with fresh bedding were used to measure times spent in repetitive behaviors including jumping, upright scrabbling, grooming, and digging during 10 min. Jumping was defined as the behavior of a mouse where it rears on it hind legs at the corner of the cage, or along the side walls, and jumps so that the two hind legs are simultaneously off the ground. Upright scrabbling was defined as the behavior of a mouse where it rears on it hind legs at the corner of the cage, or along the side walls, and tries to climb up against the wall with the two hind legs alternatively or coordinately touching the ground. Grooming behavior was defined as stroking or scratching of face, head, or body with the two forelimbs, or licking body parts. Digging behavior was defined as the behavior of a mouse where it coordinately uses two fore legs or hind legs to dig out or displace bedding materials.
as §2, with “Wild-type and Shank2^−/− mice received intraperitoneal injection of D-cycloserine (20 mg/kg), or the same volume of saline, 30 min before three-chamber assays.” left out

Shank2−/− mice [4] = experiment: Anxiety-like behavior (elevated plus-maze, light-dark test); assay type: in vivo, mouse; details: CDPPB i.p.
Protocol: The elevated plus-maze consisted of two open arms, two closed arms, and a center area, elevated to a height of 50 cm above the floor. Mice were placed in the center area and allowed to explore the space for 8 min.
The apparatus for light-dark test consisted of light (˜600 lx) and dark (˜5 lx) chambers adhered to each other. An entrance enabled mice to freely move across the light and dark chambers. The size of light chamber was 20×30×20 cm, and that of dark chamber was 20×13×20 cm. Mice were introduced to the center of the light chamber with their heads pointing towards the opposite side of the dark chamber, and allowed to explore the apparatus freely for 10 min. The latency to enter the dark chamber, the time spent in dark and light chambers, and the number of transitions were measured. Transition was defined as the translocation of all four feet of a mouse from one to another chamber.
as §2, with “Wild-type and Shank2^−/− mice received intraperitoneal injection of D-cycloserine (20 mg/kg), or the same volume of saline, 30 min before three-chamber assays.” left out

Shank2−/− mice [5] = experiment: Open field assay (hyperactivity); assay type: in vivo, mouse; details: CDPPB i.p.
Protocol: The size of the open field box was 40×40×40 cm, and the center zone line was 10 cm apart from the edge. Mice were placed in the center of chamber in the beginning of assay, and mouse movements were recorded with a video camera for 60 min, and analyzed by Ethovision 3.1 program (Noldus).
as §2

Shank3 knockdown = details: caused by Shank3 knockdown; cited from earlier work
LTP and LTD = details: cited from earlier work
[6] = system: neuroligin-1-deficient mice; details: neuroligin-1-deficient mice with reduced NMDA/AMPA ratio; cited from earlier work
autism = details: cited from earlier work

With `N#Cc1cccc(C(=O)Nc2cc(-c3ccccc3)nn2-c2ccccc2)c1` [CDPPB] the NMDA/AMPA ratio (NMDAR) was “normalized”, the NMDAR function (NMDAR) was “normalizes” and the basal synaptic transmission (SC-CA1 synapses) was “without affecting”. The “impaired LTD at SC-CA1 synapses” value (SC-CA1 synapses) was “restored”, the “impaired LTP at SC-CA1 synapses” value (SC-CA1 synapses) was “restored” and the “NMDAR signaling in synaptosomes” value (NMDAR signaling; Shank2−/− synaptosomes) was “fully normalized”. For the same compound, the “NMDAR signaling in whole brains” value (NMDAR signaling; Shank2−/− whole brains) was “fully normalized”, the social interaction (Shank2−/− mice [1]; CDPPB 10 mg/kg i.p. 30 min before assay) was “substantially improves; also recorded: substantial recoveries” and the social novelty recognition (Shank2−/− mice [1]; CDPPB i.p.) was “no effect”. For the same compound, the “social interaction, lower-dose” value (Shank2−/− mice [1]; lower-dose CDPPB (3 mg/kg i.p.)) was “did not rescue”, the impaired pup retrieval (Shank2−/− mice [2]) was “did not rescue” and the repeated jumping (Shank2−/− mice [3]) was “did not rescue”. For the same compound, the anxiety-like behaviors (Shank2−/− mice [4]) was “did not rescue”, the hyperactivity (Shank2−/− mice [5]) was “did not rescue” and the “reduced ERK phosphorylation” value (Shank3 knockdown) was “restores”. The reduced excitatory transmission (Shank3 knockdown) was “restores”, the “LTP and LTD” value (LTP and LTD) was “enhance” and the spatial learning (LTP and LTD) was “enhance”.

In the case of `N[C@@H]1CONC1=O` [D-cycloserine], the NMDA/AMPA ratio (NMDAR) is reported as “fully recovered”, the NMDAR function (NMDAR) is reported as “normalizes” and the social interaction (Shank2−/− mice [1]; D-cycloserine 20 mg/kg i.p. 30 min before assay) is reported as “improved”. The repetitive grooming [6] was “rescue”.

In the case of `O=C(Nc1cc(-c2ccccc2)nn1-c1ccccc1)c1ccc([N+](=O)[O-])cc1` [VU-29], the “LTP and LTD” value (LTP and LTD) is listed as “enhance” and the spatial learning (LTP and LTD) is listed as “enhance”.

For GLYX-13, the “therapeutic effect on autism” value (autism) is given as “showed a therapeutic effect”.
